Reference: US20090104633A1, “Kit for Highly Sensitive Detection Assays” (priority 2005, published 2009)

What was measured:
[1] = Hydrolysis half-lifes of active ester derivatives by 1H-NMR; assay type: physicochemical; details: 50 mM deuterated phosphate buffer, pD 7.2, room temperature, 1 mM active ester
Method: The hydrolysis half-lifes of active ester derivatives in physiological buffer were determined by ^1H-NMR spectroscopy. For this purpose a 50 mM phosphate buffer in deuterium oxide (D2O, […]) (deutero, Kastellaun, FRG), pD 7.2, was prepared. The phosphate salts were lyophilized thrice from fresh deuterium oxide. Finally, fresh D2O was added and the pD value was verified. […] To initiate the hydrolysis reaction 10 μl of these solutions were added to 490 μl of 50 mM deuterated phosphate-buffer, pD 7.2, spiked with 3-(trimethylsilyl)-1-propanesulfonic acid-D6 sodium salt (TMSPS) (Merck, Darmstadt, FRG) (0.1 mg/ml) as internal reference, resulting in a final concentration of active ester derivatives of 1 mM. The hydrolysis of the active esters was monitored at room temperature by ^1H-NMR spectroscopy with an Avance DRX-600 system (Bruker BioSpin, Rheinstetten, FRG) at 600 MHz. The first ^1H-spectrum was recorded 6-12 min after addition of the phosphate buffer, additional spectra were recorded at about 20, 40, 60, 120, 240, 360 and 1000-1600 min (over night). After the last measurement the pD-value was verified again. The hydrolysis reaction of each active ester derivative was measured in 2-3 independent experiments.
The Bruker software X-WIN-NMR (V 2.5; Bruker BioSpin) was used to acquire and process the data recorded at different time points. For this purpose, signals which were altered in intensity or chemical shift due to deuterolysis and which were not superimposed by signals of other nuclei were integrated and put in relation to the internal standard TMSPS. The concentration of the non-hydrolyzed active ester derivatives was calculated from the change of peak integrals and was plotted versus time.

insulin = target: T1, insulin (Bos taurus, UniProt P01317); experiment: Mean degree of derivatization of insulin with active esters (MALDI-TOF-MS); design: species or system bovine; details: 35 nMoles insulin reacted with 350 nMoles active ester, pH 7.2, 90 min RT; three independent experiments
T1 construct: 2 NH2-termini (chain A and B), 1 lysine side chain; purchased Sigma-Aldrich, Taufkirchen, FRG
Method: (§1) Stock solutions of active esters of the labelling compounds summarized in Table 2 (4.2-9.2 mg/ml, 14 mM) as well as labelling compounds (7a), (7b) and (7c) (approximately 15 mM) were prepared freshly in anhydrous dimethylsulfoxide (DMSO) for each labelling experiment. Likewise, a stock solution of insulin (200 μg/ml, 35 μM; bovine insulin, MW 5733,49; Sigma-Aldrich, Taufkirchen, FRG) in 50 mM phosphate buffer, pH 7.2, 0.02 mM ethylenediaminetetraacetic acid (EDTA) (PBS/EDTA) was prepared. For labelling, insulin (35 nMoles, representing 105 nMoles amino functions (2 NH2-termini (chain A and B), 1 lysine side chain)) was reacted with active esters (350 nMoles) in a final volume of 1.25 ml PBS/EDTA, containing no more than 2% (v/v) DMSO in any experiment. The solutions were mixed on an end-to-end mixer for 90 min at RT and the labelling reactions were terminated by addition of glycine (1 mMole) in PBS/EDTA. Mixing was continued for 60 min at RT before the solution was dialyzed against PBS/EDTA (MWCO 2,000). After another dialysis against water, the heterogeneity of the samples and the molecular masses of the products were determined in MALDI-TOF-MS analyses (Bruker-Reflex II instrument; Bruker-Daltonik, Bremen, FRG). The mean labelling degree was calculated as described elsewhere (Olivier V, Meisen I, Meckelein B, Hirst T R, Peter-Katalinic J, Schmidt M A, Frey A (2003). Influence of targeting ligand flexibility on receptor binding of particulate drug delivery systems. Bioconjug Chem. 14:1203-8.) (Table 6).

[2] = target: T2, Streptavidin AlexaFluor680 (Streptomyces avidinii, UniProt P22629); experiment: Dot blot detection of hydrazide-labelled glycoprotein (porcine mucin) on nitrocellulose; details: periodate-oxidized mucin, mean ± SEM
Method: All subsequent treatments of the membranes were carried out in tight fitting trays. For oxidation or the carbohydrate moieties of the glycoprotein the membranes were incubated for 20 min at RT in 3 ml (0.21 ml/cm^2 membrane) 10 mM sodium m-periodate (Sigma-Aldrich, Taufkirchen, FRG) in 100 mM sodium acetate buffer (pH 5). They were washed another 3× in D-PBS, incubated each for 60 min at RT with 3 ml (0.21 ml/cm^2 membrane) of 2.5 μM labelling-hydrazide (Table 4) in 100 mM sodium acetate buffer (pH 5), washed again 3× in D-PBS and blocked with 1% (w/v) Casein (Hammarsten grade, BDH, Poole, UK) in D-PBS (Casein-PBS) for 30 min at RT. Blocked membranes were incubated for 90 min at RT with 4 ml (0.28 ml/cm^2 membrane) diluted monoclonal antibodies against 2,4-dichlorophenoxyacetic acid or monoclonal antibodies against DIG or with AlexaFluor680-labelled streptavidin (for working concentrations see Table 3) in Casein-PBS and washed 3× with D-PBS. […] After intense washing with D-PBS fluorescence was read out on a fluorescence imager (Odyssey Infrared Imager, LI-COR Biosciences, Lincoln, Nebr., USA) and quantitated with an appropriate image analysis software (Odyssey Software v.1.2). Statistical analysis of the data was carried out with the GraphPad Prism Suite (v.4.0.0, GraphPad Software, San Diego, Calif., USA).

streptavidin-HRP = target: T3, streptavidin-HRP (Streptomyces avidinii, UniProt P22629); experiment: Detection of active ester-labelled insulin on PVDF filterplates (HRP/TMB); assay type: binding; details: for Detection limit of labelled protein: insulin conjugate on PVDF, mean ± SEM; for Detection limit of label: insulin conjugate, converted from pg protein with labelling degree (Table 6)
T3 construct: purchased Vector Labs, Burlingame, Calif., USA
Method: as §1
The concentrations of the labelled polypeptides were determined by standard assays and serial dilutions of the solutions were prepared in PBS/EDTA. Equal amounts of the diluted solutions (1,000-0.12 ng conjugate/well, each in 50 μl PBS/EDTA) were applied onto 96-well polystyrene filterplates equipped with polyvinylidene fluoride (PVDF) membrane bottoms (Corning, Corning, N.Y., USA), which had been pre-activated with 70% (v/v) ethanol and washed with phosphate buffer. The plates were incubated for 30 min at room temperature before the solutions were sucked through the membranes with a MultiScreen vacuum manifold (Millipore, Schwalbach, FRG). […] Nonspecific binding sites were blocked with 200 μl/well 2% (w/v) caseinate in D-PBS (Caseinate-PBS) for 30 min at RT and the solutions were removed. […] After the plates were washed another 6× with PBST with the vacuum manifold and 6× with D-PBS with the plate washer, color was developed at room temperature in the dark with 75 μl/well of a highly sensitive tetramethylbenzidine-based substrate reagent (1 mM 3,3′,5,5′-tetramethylbenzidine, 3 mM H2O2 in 200 mM potassium citrate, pH 4.0; (Frey A, Meckelein B, Externest D, Schmidt M A (2000). A stable and highly sensitive 3,3′,5,5′-tetramethylbenzidine-based substrate reagent for enzyme-linked immunosorbent assays. J Immunol Methods. 233:47-56.)). The reaction was terminated after 30 min with 125 μl/well 1 M sulfuric acid.

[3] = target: T2, Streptavidin AlexaFluor680; experiment: Dot blot detection of active ester-labelled ovalbumin on nitrocellulose; assay type: binding; design: purchased Invitrogen; details: ovalbumin conjugate, mean ± SEM
Method: Stock solutions of 65-100 mg/ml (120-330 mM) active ester of the labelling compounds (Table 2) were prepared freshly in anhydrous dimethylsulfoxide (DMSO) for each labelling experiment. […] For labelling 100 nMoles ovalbumin (representing 2 μMoles amino functions) were reacted with 1.5 μMoles of active ester in a final volume of 300 μl 100 mM sodium tetraborate, pH 8.2, containing no more than 5% (v/v) DMSO in any experiment. The solutions were mixed on an end-to-end mixer for 180 min at RT and the labelling reactions were terminated by addition of 1.5 mmoles glycine in sodium tetraborate buffer. Mixing was continued overnight at 4° C. before the solutions were dialyzed against sodium tetraborate buffer. The concentrations of the labelled protein were determined by standard assays and serial dilutions of the stock solutions were prepared.

T1 sequence (P01317 25-54 limits assumed): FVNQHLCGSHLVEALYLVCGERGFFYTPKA
T1 sequence (P01317 85-105 limits assumed): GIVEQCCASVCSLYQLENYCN
T3 sequence (P22629 25-183): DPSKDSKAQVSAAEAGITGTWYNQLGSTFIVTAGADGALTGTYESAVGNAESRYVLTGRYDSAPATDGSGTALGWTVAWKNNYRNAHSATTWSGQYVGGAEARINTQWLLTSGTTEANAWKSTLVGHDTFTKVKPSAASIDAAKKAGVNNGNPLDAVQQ
T2 sequence (P22629 25-183): as above

Compound	Hydrolysis half-life [1]	Mean labelling degree (insulin)	Detection limit of proteins after labelling with hydrazide derivatives [2]	Detection limit of labelled protein (streptavidin-HRP)	Detection limit of label (streptavidin-HRP)	Detection limit of proteins after labelling with active ester derivatives [3] [pg]
C[C@]12CC[C@H](OCC(=O)NCCCCCC(=O)ON3C(=O)CCC3=O)C[C@H]1CC[C@@H]1[C@@H]2C[C@@H](O)[C@]2(C)[C@@H](C3=CC(=O)OC3)CC[C@]12O [DIG-C6-NHS, Digoxigenin-3-O-methylcarbonyl-ε-aminocaproyl-N-hydroxysuccinimide]	248^(*^) min	1.50 Mole label: Mole insulin	–	–	–	–
O=C(COc1ccc(Cl)cc1Cl)NCCCCCCCCCCC(=O)ON1C(=O)CC(S(=O)(=O)[O-])C1=O.[Na+] (centres unmarked) [(3d), 11-(2-(2,4-dichlorophenoxy)acetylamino)-undecanoic acid-N-hydroxysulfosuccinimidyl-ester-sodium Salt]	–	0.38 Mole label: Mole insulin	–	–	–	–
SLC-(+)-Biotinoylhydrazide [Biotin-C11 hydrazide]	–	–	114.6 ± 10.4^ pg	–	–	–
O=C(COc1ccc(Cl)cc1Cl)ON1C(=O)CCC1=O [(1b)]	25 min	0.52 Mole label: Mole insulin	–	–	–	–
O=C(CCCC[C@@H]1SC[C@@H]2NC(=O)N[C@@H]21)NCCCCCC(=O)ON1C(=O)CC(S(=O)(=O)[O-])C1=O.[Na+] (stereo partly drawn) [Sulfo-NHS-LC-biotin, Sulfo-LC-(+)-Biotin]	101 min	1.72 Mole label: Mole insulin	–	33,854.2 ± 6,107.3 pg	10,156.0 ± 1,832.1 fMole	248.0 ± 66.6
O=C(CCCCCNC(=O)CCCC[C@@H]1SC[C@@H]2NC(=O)N[C@@H]21)NCCCCCC(=O)ON1C(=O)CCC1=O [NHS-SLC-biotin, SLC-NHS-(+)-Biotin]	–	0.08 Mole label: Mole insulin	–	1,277,778.0 ± 237,333.4 pg	17,829.0 ± 3,311.5 fMole	39063.0 ± 5508.0
O=C1N[C@H]2[C@H](CS[C@H]2CCCCC(=O)ON2C(=O)CC(S(=O)(=O)[O-])C2=O)N1.[Na+] (stereo partly drawn) [Sulfo-NHS-biotin, Sulfo-Succinimidyl-(+)-biotin]	62 min	1.79 Mole label: Mole insulin	–	62,500.0 ± 15,343.4 pg	19,512.6 ± 4,790.2 fMole	246.5 ± 67.2
NNC(=O)CCCCCNC(=O)CCCC[C@@H]1SC[C@@H]2NC(=O)N[C@@H]21 [Biotin-C6 hydrazide, LC-(+)-Biotinoylhydrazide]	–	–	49.1 ± 6.3^ pg	–	–	–
O=C(COc1ccc(Cl)cc1Cl)NCCCCCC(=O)ON1C(=O)CC(S(=O)(=O)[O-])C1=O.[Na+] (centres unmarked) [(3b), 6-(2-(2,4-dichlorophenoxy)acetylamino)-hexanoic acid-N-hydroxysulfosuccinimidyl-ester-sodium Salt]	231^(*^) min	1.61 Mole label: Mole insulin	–	–	–	–
